Assay results as given in ChEMBL document CHEMBL1201862, “PubChem BioAssay data set” (2004).
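Following 48 hours of exposure in 96-well plates, responses at five concentrations were used to interpolate endpoints linearly. Abbreviation: GI50, concentration required for 50% inhibition of growth.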 Activity calls are given as the source filed them. Cut-off read from the data, not from the text of the source: active = GI50 up to about 1.1 µM and inactive = higher.

Experiments:
Assay in all cases: NCI-60 cell line screen, 48 h
DLD-1 = tested on: DLD-1
KM-20L2 = tested on: KM-20L2
A549 = tested on: A549
SNB-75 = tested on: SNB-75
COLO 205 = tested on: COLO 205
MOLT-4 = tested on: MOLT-4
KM12 = tested on: KM12
SW-620 = tested on: SW-620
UO-31 = tested on: UO-31
HCT-15 = tested on: HCT-15
SN12C = tested on: SN12C
HL-60 = tested on: HL-60
UACC-257 = tested on: UACC-257
HOP-62 = tested on: HOP-62
HOP-92 = tested on: HOP-92
K562 = tested on: K562
TK-10 = tested on: TK-10
HT-29 = tested on: HT-29
SF-539 = tested on: SF-539
LXFL 529 = tested on: LXFL 529
OVCAR-3 = tested on: OVCAR-3
UACC-62 = tested on: UACC-62
ACHN = tested on: ACHN
A498 = tested on: A498
U-251 = tested on: U-251
HCC 2998 = tested on: HCC 2998
IGROV-1 = tested on: IGROV-1
NCI-H23 = tested on: NCI-H23
OVCAR-8 = tested on: OVCAR-8
CCRF-CEM = tested on: CCRF-CEM
NCI-H460 = tested on: NCI-H460
CAKI-1 = tested on: CAKI-1
M14 = tested on: M14
SF-295 = tested on: SF-295
M19-MEL = tested on: M19-MEL
SK-OV-3 = tested on: SK-OV-3
Malme-3M = tested on: Malme-3M
EKVX = tested on: EKVX
OVCAR-4 = tested on: OVCAR-4
SF-268 = tested on: SF-268
SR = tested on: SR
NCI-H522 = tested on: NCI-H522
OVCAR-5 = tested on: OVCAR-5
SK-MEL-28 = tested on: SK-MEL-28
XF498 = tested on: XF498
HCT-116 = tested on: HCT-116
SK-MEL-5 = tested on: SK-MEL-5
RPMI-8226 = tested on: RPMI-8226
SNB-19 = tested on: SNB-19
786-0 = tested on: 786-0
DMS-114 = tested on: DMS-114
DMS-273 = tested on: DMS-273
LOX IMVI = tested on: LOX IMVI
NCI-H226 = tested on: NCI-H226
SK-MEL-2 = tested on: SK-MEL-2
RXF 393 = tested on: RXF 393

With `Cn1c(=O)c2nc(N3CCCCC3)cnc2n(C)c1=O` the GI50 (DLD-1) was > 100 µM (inactive), the GI50 (KM-20L2) was > 100 µM (inactive) and the GI50 (A549) was > 100 µM (inactive). The GI50 (SNB-75) was > 100 µM (inactive), the GI50 (COLO 205) was > 100 µM (inactive) and the GI50 (MOLT-4) was > 100 µM (inactive). The GI50 (KM12) was > 100 µM (inactive), the GI50 (SW-620) was > 100 µM (inactive) and the GI50 (UO-31) was > 100 µM (inactive). The GI50 (HCT-15) was > 100 µM, the GI50 (SN12C) was > 100 µM (inactive) and the GI50 (HL-60) was > 100 µM (inactive). For the same compound, the GI50 (UACC-257) was > 100 µM (inactive), the GI50 (HOP-62) was > 100 µM (inactive) and the GI50 (HOP-92) was > 100 µM (inactive). For the same compound, the GI50 (K562) was > 100 µM (inactive), the GI50 (TK-10) was > 100 µM (inactive) and the GI50 (HT-29) was > 100 µM (inactive). For the same compound, the GI50 (SF-539) was > 100 µM (inactive), the GI50 (LXFL 529) was > 100 µM (inactive) and the GI50 (OVCAR-3) was > 100 µM (inactive). For the same compound, the GI50 (UACC-62) was > 100 µM (inactive), the GI50 (ACHN) was > 100 µM (inactive) and the GI50 (A498) was > 100 µM (inactive). For the same compound, the GI50 (U-251) was > 100 µM (inactive), the GI50 (HCC 2998) was > 100 µM (inactive) and the GI50 (IGROV-1) was > 100 µM (inactive). The GI50 (NCI-H23) was > 100 µM (inactive), the GI50 (OVCAR-8) was > 100 µM (inactive) and the GI50 (CCRF-CEM) was > 100 µM (inactive). For the same compound, the GI50 (NCI-H460) was > 100 µM (inactive), the GI50 (CAKI-1) was > 100 µM (inactive) and the GI50 (M14) was > 100 µM (inactive). The GI50 (SF-295) was > 100 µM (inactive), the GI50 (M19-MEL) was > 100 µM (inactive) and the GI50 (SK-OV-3) was > 100 µM (inactive). For the same compound, the GI50 (Malme-3M) was > 100 µM (inactive), the GI50 (EKVX) was > 100 µM (inactive) and the GI50 (OVCAR-4) was > 100 µM (inactive). The GI50 (SF-268) was > 100 µM (inactive), the GI50 (SR) was > 100 µM (inactive) and the GI50 (NCI-H522) was > 100 µM (inactive). The GI50 (OVCAR-5) was > 100 µM (inactive), the GI50 (SK-MEL-28) was > 100 µM (inactive) and the GI50 (XF498) was > 100 µM (inactive). For the same compound, the GI50 (HCT-116) was > 100 µM (inactive), the GI50 (SK-MEL-5) was > 100 µM (inactive) and the GI50 (RPMI-8226) was > 100 µM (inactive). For the same compound, the GI50 (SNB-19) was > 100 µM (inactive).
`COc1ccc(CC(=O)NCCc2ccc(OC)c(OC)c2)cc1Br` was tested, and the GI50 (DLD-1) was > 100 µM (inactive), the GI50 (KM-20L2) was > 100 µM (inactive) and the GI50 (A549) was > 100 µM (inactive). The GI50 (COLO 205) was > 100 µM (inactive), the GI50 (MOLT-4) was > 100 µM (inactive) and the GI50 (KM12) was > 100 µM (inactive). The GI50 (SW-620) was > 100 µM (inactive), the GI50 (786-0) was > 100 µM (inactive) and the GI50 (UO-31) was > 100 µM (inactive). The GI50 (DMS-114) was > 100 µM (inactive), the GI50 (SN12C) was > 100 µM (inactive) and the GI50 (HL-60) was > 100 µM (inactive). The GI50 (UACC-257) was > 100 µM (inactive), the GI50 (HOP-62) was > 100 µM (inactive) and the GI50 (HOP-92) was > 100 µM (inactive). For the same compound, the GI50 (K562) was > 100 µM (inactive), the GI50 (TK-10) was > 100 µM (inactive) and the GI50 (HT-29) was > 100 µM (inactive). The GI50 (SF-539) was > 100 µM (inactive), the GI50 (LXFL 529) was > 100 µM (inactive) and the GI50 (DMS-273) was > 100 µM (inactive). The GI50 (UACC-62) was 62.1 µM (inactive), the GI50 (ACHN) was > 100 µM (inactive) and the GI50 (A498) was > 100 µM (inactive). The GI50 (U-251) was > 100 µM (inactive), the GI50 (HCC 2998) was > 100 µM (inactive) and the GI50 (IGROV-1) was > 100 µM (inactive). The GI50 (NCI-H23) was > 100 µM (inactive), the GI50 (LOX IMVI) was > 100 µM (inactive) and the GI50 (OVCAR-8) was > 100 µM (inactive). For the same compound, the GI50 (CCRF-CEM) was > 100 µM (inactive), the GI50 (NCI-H226) was 41.5 µM (inactive) and the GI50 (NCI-H460) was > 100 µM (inactive). The GI50 (CAKI-1) was > 100 µM (inactive), the GI50 (SF-295) was > 100 µM (inactive) and the GI50 (SK-OV-3) was > 100 µM (inactive). For the same compound, the GI50 (SK-MEL-2) was > 100 µM (inactive), the GI50 (Malme-3M) was > 100 µM (inactive) and the GI50 (EKVX) was > 100 µM (inactive). For the same compound, the GI50 (OVCAR-4) was > 100 µM (inactive), the GI50 (SF-268) was > 100 µM (inactive) and the GI50 (SR) was > 100 µM (inactive). The GI50 (RXF 393) was > 100 µM (inactive), the GI50 (NCI-H522) was > 100 µM (inactive) and the GI50 (OVCAR-5) was 57.1 µM (inactive). For the same compound, the GI50 (SK-MEL-28) was > 100 µM (inactive), the GI50 (XF498) was 38.7 µM (inactive) and the GI50 (SNB-19) was > 100 µM (inactive).
